Results taken from patent publication US5874446A, “Benzopyran derivatives” (Chugai Seiyaku Kabushiki Kaisha, priority 1992, dated 1999).

Key:
[1] = system: Excised Aorta of Rat (thoracic aorta ring preparations); assay: Test with Excised Aorta of Rat: relaxation of lasting contraction by KCl; assay type: cell-based, male Sprague Dawley rat; settings: 50% inhibitory concentration, relaxation of 30 mM KCl contraction, Krebs-Henseleit, 37° C.
Description: Test with Excised Aorta of Rat
The thoracic aorta was excised from a male Sprague Dawley rat (450 to 600 g) and cut into 2 mm wide ring preparations. Each preparation was suspended in 10 ml of an Organ bath containing a Krebs-Henseleit solution (NaCl:119; KCl:4.8; CaCl2.2H2 O:2.53; KH2 PO4 :1.2; MgSO4.7H2 O:1.2; NaHCO3 :24.8; glucose:10(mM); 37° C.) under a tension of 2 g, and a mixed gas of 95% O2 and 5% CO2 was bubbled therethrough. Contraction reactions of the preparation were isometrically recorded by means of an FD pick-up. […] The activity of a test compound to relax a lasting contraction by the addition of KCl was evaluated by obtaining a 50% inhibitory concentration (IC50)
The compounds of the present invention obtained in the foregoing Examples and Cromakalim was used as test compound for comparison.

[2] = system: Guinea Pig Tracheal Muscle; assay: Test with Guinea Pig Tracheal Muscle: relaxing activity on spontaneous tension; assay type: cell-based, male Hartley guinea pig; settings: Cavia porcellus; 50% relaxing activity; 1 mM aminophylline on spontaneous tension taken as 100%; Krebs-Henseleit, 37° C.
Description: Test with Guinea Pig Tracheal Muscle
The trachea was excised from a male Hartley guinea pig (450 to 550 g) to make chain preparations. The preparation was suspended in a bath containing the abovementioned Krebs-henseleit solution (37° C.) through which a mixed gas of 95% O2 and 5% CO2 was bubbled. Contraction reactions of the preparation were isometrically recorded under a tension of 1 g.
The same test compound as used in Text Example 1 were used.

Compound	IC50 [1] [nM]	IC50 [2] [nM]
N#C[N-][n+]1ccccc1C1=CC(CF)(CF)Oc2ccc([N+](=O)[O-])cc21 [Compound 52, 2-(2,2-Bisfluoromethyl-6-nitro-2H-1-benzopyran-4-yl)pyridine N-cyanoimine]	2	12
O=c1ccccn1C1=CC(CF)(CF)Oc2ccc([N+](=O)[O-])cc21 [Compound 12, 2,2-Bisfluoromethyl-6-nitro-4-(1,2-dihydro-2-oxo-1-pyridyl)-2H-1-benzopyran]	2.5	5.9
CC1(C)Oc2ccc(C#N)cc2[C@@H](N2CCCC2=O)[C@@H]1O (relative stereo) [Cromakalim, reference compound]	170	860
[O-][n+]1ccccc1C1=CC(CF)(CF)Oc2ccc(C(F)(F)F)cc21 [Compound 50, 2-(2,2-Bisfluoromethyl-6-trifluoromethyl-2H-1-benzopyran-4-yl)pyridine N-oxide]	–	18
N#C[N-][n+]1ccccc1C1=CC(CF)(CF)Oc2ccc(C(F)(F)C(F)(F)F)cc21 [Compound 55, 2-(6-Pentafluoroethyl-2,2-bisfluoromethyl-2H-1-benzopyran-4-yl)pyridine N-cyanoimine]	0.82	6.3
[O-][n+]1ccccc1C1=CC(CF)(CF)Oc2ccc(C(F)(F)C(F)(F)F)cc21 [Compound 48, 2-(6-Pentafluoroethyl-2,2-bisfluoromethyl-2H-1-benzopyran-4-yl)pyridine N-oxide]	1.6	3.9

The remaining lines, values ahead:

IC50 [1] [nM]	IC50 [2] [nM]	Compound
2.6	6.8	O=C1CCCCN1[C@@H]1c2cc([N+](=O)[O-])ccc2OC(CF)(CF)[C@H]1O (relative stereo) [Compound 6-2, Trans-2,2-bisfluoromethyl-3,4-dihydro-6-nitro-4-(2-oxo-1-piperidinyl)-2H-1-benzopyran-3-ol]
0.28	6.9	O=C1CCCCN1[C@@H]1c2cc(C(F)(F)C(F)(F)F)ccc2OC(CF)(CF)[C@H]1O (relative stereo) [Compound 4-2, Trans-6-pentafluoroethyl-2,2-bisfluoromethyl-3,4-dihydro-4-(2-oxo-1-piperidinyl)-2H-1-benzopyran-3-ol]
74	390	N#Cc1ccc2c(c1)[C@@H](N1CCCC1=O)[C@H](O)C(CF)(CF)O2 (relative stereo) [Compound 2-2, Trans-6-cyano-2,2-bisfluoromethyl-3,4-dihydro-4-(2-oxo-1-pyrrolidinyl)-2H-1-benzopyran-3-ol]
